According to US20020051978A1, “Methods and compositions for the identification, assessment, prevention and therapy of human cancers” (priority 2000, published 2002):
Counter-ions that a name gives are not always drawn. Like-named read-outs stand apart in the source and are kept apart here.

Columns and labels:
[1] = test system: 60 cancer cell lines (NCI 60 cancer cell line series); conditions: cited from earlier work
[2] = test system: 60 cancer cell lines (NCI 60 cancer cell line series); assay: NCI-DTP in vitro cancer screen, sulforhodamine B (SRB) growth inhibition, 48 hour exposure; type: cell-based, human; parameters: key to sensitivity class Ovarian OVCAR-8 CL6005 / sensitivity class Ovarian SK-OV-3 CL6011 / sensitivity class Prostate DU-145 CL11003 / sensitivity class NSCLC NCI-H522 CL1003 / sensitivity class Ovarian IGROV1 CL6010 / sensitivity class Ovarian OVCAR-4 CL6002 / sensitivity class Prostate PC-3(I) CL11001 / sensitivity class Renal A498 CL9013 / sensitivity class Renal SN12C CL9008: sensitivity class: 1 = Low, 2 = Medium, 3 = High
In short: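 Sixty NCI-DTP cancer lines plated at line-specific densities, dosed on day 1 in duplicate with 5 concentrations at ten-fold intervals. After 48 h exposure, cell mass read by SRB staining; GI50 (50% growth inhibition) taken from dose-response curves and expressed as -log GI50.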

CC[C@]1(O)C[C@H]2CN(CCc3c([nH]c4ccccc34)[C@@](C(=O)OC)(c3cc4c(cc3OC)N(C=O)[C@H]3[C@@](O)(C(=O)OC)[C@H](OC(C)=O)[C@]5(CC)C=CCN6CC[C@]43[C@@H]65)C2)C1 [Vincristine sulfate]
-Log (GI50) ([1]; Breast BT-549 (CL5013)): 5.9
-Log (GI50) ([1]; Breast HS-578T CL5006): 6.5
-Log (GI50) ([1]; Breast MCF7(I) (CL5001)): 6.9
-Log (GI50) ([1]; Breast MCF7/ADRr (CL5002)): 6.1
-Log (GI50) ([1]; Breast MDA-MB-231 CL5005): 6.6
-Log (GI50) ([1]; Breast MDA-MB-435 (CL5011)): 6.7
-Log (GI50) ([1]; Breast MDA-N CL5012): 6.6
-Log (GI50) ([1]; Breast T-47D (CL5014)): 3.8
-Log (GI50) ([1]; CNS SF-268 CL12014): 6.8
-Log (GI50) ([1]; CNS SF-295 CL12015): 7.0
-Log (GI50) ([1]; CNS SF-539 CL12016): 7.0
-Log (GI50) ([1]; CNS SNB-19 (CL12002)): 6.9
-Log (GI50) ([1]; CNS SNB-75(I) CL12005): 6.3
-Log (GI50) ([1]; CNS U251(I) CL12009): 6.9
-Log (GI50) ([1]; Colon COLO-250 CL4010): 6.9
-Log (GI50) ([1]; Colon HCC-2998 (CL4002)): 6.9
-Log (GI50) ([1]; Colon HCT-15 CL4015): 6.9
-Log (GI50) ([1]; Colon HCT-116 (CL4003)): 6.9
-Log (GI50) ([1]; Colon HT29(I) CL4001): 7.0
-Log (GI50) ([1]; Colon KM12 (CL4017)): 6.9
-Log (GI50) ([1]; Colon SW-620 (CL4009)): 7.0
-Log (GI50) ([1]; Leukemia CCRF-CEM(I) (CL7003)): 7.0
-Log (GI50) ([1]; Leukemia HL-60(I) (CL7008)): 7.0
-Log (GI50) ([1]; Leukemia K562(I) CL7005): 7.0
-Log (GI50) ([1]; Leukemia MOLT-4 (CL7006)): 6.9
-Log (GI50) ([1]; Leukemia RPMI-8226(I) (CL7010)): 6.9
-Log (GI50) ([1]; Leukemia SR CL7019): 7.0
-Log (GI50) ([1]; Melanoma LOX IMVI CL10001): 7.0
-Log (GI50) ([1]; Melanoma M14 (CL10014)): 6.9
-Log (GI50) ([1]; Melanoma MALME-3M CL10002): 6.6
-Log (GI50) ([1]; Melanoma SK-MEL-2 (CL10005)): 6.9
-Log (GI50) ([1]; Melanoma SK-MEL-5 (CL10007)): 7.0
-Log (GI50) ([1]; Melanoma SK-MEL-28 (CL10008)): 6.0
-Log (GI50) ([1]; Melanoma UACC-62 (CL10020)): 6.9
-Log (GI50) ([1]; Melanoma UACC-257 (CL10021)): 6.8
-Log (GI50) ([1]; NCSLC NCI-H522 CL1003): 6.9
-Log (GI50) ([1]; NSCLC A549/ATCC (CL1004)): 6.9
-Log (GI50) ([1]; NSCLC EKVX (CL1008)): 5.7
-Log (GI50) ([1]; NSCLC HOP-62 (CL1026)): 6.8
-Log (GI50) ([1]; NSCLC HOP-92 (CL1029)): 6.9
-Log (GI50) ([1]; NSCLC NCI-H23(I) CL1001): 7.0
-Log (GI50) ([1]; NSCLC NCI-H226 CL1013): 6.9
-Log (GI50) ([1]; NSCLC NCI-H332M CL1017): 6.9
-Log (GI50) ([1]; NSCLC NCI-H460 CL1021): 7.0
-Log (GI50) ([1]; Ovarian IGROV1 CL6010): 7.0
-Log (GI50) ([1]; Ovarian OVCAR-3 CL6001): 7.0
-Log (GI50) ([1]; Ovarian OVCAR-4 CL6002): 6.3
-Log (GI50) ([1]; Ovarian OVCAR-5 CL6003): 4.7
-Log (GI50) ([1]; Ovarian OVCAR-8 CL6005): 7.0
-Log (GI50) ([1]; Ovarian SK-OV-3 CL6011): 6.6
-Log (GI50) ([1]; Prostate DU-145 CL11003): 6.4
-Log (GI50) ([1]; Prostate PC-3(I) CL11001): 6.6
-Log (GI50) ([1]; Renal 786-O CL9018): 6.9
-Log (GI50) ([1]; Renal A498 CL9013): 7.0
-Log (GI50) ([1]; Renal ACHN CL9023): 6.8
-Log (GI50) ([1]; Renal CAKI-1 CL9015): 6.9
-Log (GI50) ([1]; Renal RXF-393 CL9016): 6.9
-Log (GI50) ([1]; Renal SN12C CL9008): 6.9
-Log (GI50) ([1]; Renal TK10 CL9024): 5.7
-Log (GI50) ([1]; Renal UO-31 CL9004): 5.7
classification of cell line as Low(1), Medium(2) or High(3) sensitivity to compound ([2]; Breast BT-549 (CL5013)): 2
classification of cell line as Low(1), Medium(2) or High(3) sensitivity to compound ([2]; Breast HS-578T CL5006): 2
classification of cell line as Low(1), Medium(2) or High(3) sensitivity to compound ([2]; Breast MCF7(I) (CL5001)): 2
classification of cell line as Low(1), Medium(2) or High(3) sensitivity to compound ([2]; Breast MCF7/ADRr (CL5002)): 2
classification of cell line as Low(1), Medium(2) or High(3) sensitivity to compound ([2]; Breast MDA-MB-231 CL5005): 2
classification of cell line as Low(1), Medium(2) or High(3) sensitivity to compound ([2]; Breast MDA-MB-435 (CL5011)): 2
classification of cell line as Low(1), Medium(2) or High(3) sensitivity to compound ([2]; Breast MDA-N CL5012): 1
classification of cell line as Low(1), Medium(2) or High(3) sensitivity to compound ([2]; Breast T-47D (CL5014)): 2
classification of cell line as Low(1), Medium(2) or High(3) sensitivity to compound ([2]; CNS SF-268 CL12014): 3
classification of cell line as Low(1), Medium(2) or High(3) sensitivity to compound ([2]; CNS SF-295 CL12015): 3
classification of cell line as Low(1), Medium(2) or High(3) sensitivity to compound ([2]; CNS SF-539 CL12016): 3
classification of cell line as Low(1), Medium(2) or High(3) sensitivity to compound ([2]; CNS SNB-19 (CL12002)): 2
classification of cell line as Low(1), Medium(2) or High(3) sensitivity to compound ([2]; CNS SNB-75(I) CL12005): 2
classification of cell line as Low(1), Medium(2) or High(3) sensitivity to compound ([2]; CNS U251(I) CL12009): 2
classification of cell line as Low(1), Medium(2) or High(3) sensitivity to compound ([2]; Colon COLO-250 CL4010): 2
classification of cell line as Low(1), Medium(2) or High(3) sensitivity to compound ([2]; Colon HCC-2998 (CL4002)): 2
classification of cell line as Low(1), Medium(2) or High(3) sensitivity to compound ([2]; Colon HCT-15 CL4015): 2
classification of cell line as Low(1), Medium(2) or High(3) sensitivity to compound ([2]; Colon HCT-116 (CL4003)): 2
classification of cell line as Low(1), Medium(2) or High(3) sensitivity to compound ([2]; Colon HT29(I) CL4001): 3
classification of cell line as Low(1), Medium(2) or High(3) sensitivity to compound ([2]; Colon KM12 (CL4017)): 3
classification of cell line as Low(1), Medium(2) or High(3) sensitivity to compound ([2]; Colon SW-620 (CL4009)): 3
classification of cell line as Low(1), Medium(2) or High(3) sensitivity to compound ([2]; Leukemia CCRF-CEM(I) (CL7003)): 3
classification of cell line as Low(1), Medium(2) or High(3) sensitivity to compound ([2]; Leukemia HL-60(I) (CL7008)): 3
classification of cell line as Low(1), Medium(2) or High(3) sensitivity to compound ([2]; Leukemia K562(I) CL7005): 3
classification of cell line as Low(1), Medium(2) or High(3) sensitivity to compound ([2]; Leukemia MOLT-4 (CL7006)): 3
classification of cell line as Low(1), Medium(2) or High(3) sensitivity to compound ([2]; Leukemia RPMI-8226(I) (CL7010)): 3
classification of cell line as Low(1), Medium(2) or High(3) sensitivity to compound ([2]; Leukemia SR CL7019): 3
classification of cell line as Low(1), Medium(2) or High(3) sensitivity to compound ([2]; Melanoma LOX IMVI CL10001): 3
classification of cell line as Low(1), Medium(2) or High(3) sensitivity to compound ([2]; Melanoma M14 (CL10014)): 2
classification of cell line as Low(1), Medium(2) or High(3) sensitivity to compound ([2]; Melanoma MALME-3M CL10002): 2
classification of cell line as Low(1), Medium(2) or High(3) sensitivity to compound ([2]; Melanoma SK-MEL-2 (CL10005)): 2
classification of cell line as Low(1), Medium(2) or High(3) sensitivity to compound ([2]; Melanoma SK-MEL-5 (CL10007)): 3
classification of cell line as Low(1), Medium(2) or High(3) sensitivity to compound ([2]; Melanoma SK-MEL-28 (CL10008)): 1
classification of cell line as Low(1), Medium(2) or High(3) sensitivity to compound ([2]; Melanoma UACC-62 (CL10020)): 2
classification of cell line as Low(1), Medium(2) or High(3) sensitivity to compound ([2]; Melanoma UACC-257 (CL10021)): 2
classification of cell line as Low(1), Medium(2) or High(3) sensitivity to compound ([2]; NSCLC A549/ATCC (CL1004)): 2
classification of cell line as Low(1), Medium(2) or High(3) sensitivity to compound ([2]; NSCLC EKVX (CL1008)): 1
classification of cell line as Low(1), Medium(2) or High(3) sensitivity to compound ([2]; NSCLC HOP-62 (CL1026)): 2
classification of cell line as Low(1), Medium(2) or High(3) sensitivity to compound ([2]; NSCLC HOP-92 (CL1029)): 2
classification of cell line as Low(1), Medium(2) or High(3) sensitivity to compound ([2]; NSCLC NCI-H226 CL1013): 2
sensitivity class NSCLC NCI-H23(I) CL1001 ([2]; cell line NSCLC NCI-H23(I), CL1001): 3
sensitivity class NSCLC NCI-H332M CL1017 ([2]; cell line NSCLC NCI-H332M, CL1017): 2
sensitivity class NSCLC NCI-H460 CL1021 ([2]; cell line NSCLC NCI-H460, CL1021): 3
sensitivity class NSCLC NCI-H522 CL1003 ([2]; cell line NSCLC NCI-H522, CL1003): 3
sensitivity class Ovarian IGROV1 CL6010 ([2]; cell line Ovarian IGROV1, CL6010): 3
sensitivity class Ovarian OVCAR-3 CL6001 ([2]; cell line Ovarian OVCAR-3, CL6001): 3
sensitivity class Ovarian OVCAR-4 CL6002 ([2]; cell line Ovarian OVCAR-4, CL6002): 2
sensitivity class Ovarian OVCAR-5 CL6003 ([2]; cell line Ovarian OVCAR-5, CL6003): 1
sensitivity class Ovarian OVCAR-8 CL6005 ([2]; cell line Ovarian OVCAR-8, CL6005): 3
sensitivity class Ovarian SK-OV-3 CL6011 ([2]; cell line Ovarian SK-OV-3, CL6011): 2
sensitivity class Prostate DU-145 CL11003 ([2]; cell line Prostate DU-145, CL11003): 2
sensitivity class Prostate PC-3(I) CL11001 ([2]; cell line Prostate PC-3(I), CL11001): 2
sensitivity class Renal 786-O CL9018 ([2]; cell line Renal 786-O, CL9018): 2
sensitivity class Renal A498 CL9013 ([2]; cell line Renal A498, CL9013): 3
sensitivity class Renal ACHN CL9023 ([2]; cell line Renal ACHN, CL9023): 2
sensitivity class Renal CAKI-1 CL9015 ([2]; cell line Renal CAKI-1, CL9015): 2
sensitivity class Renal RXF-393 CL9016 ([2]; cell line Renal RXF-393, CL9016): 2
sensitivity class Renal SN12C CL9008 ([2]; cell line Renal SN12C, CL9008): 2
sensitivity class Renal TK10 CL9024 ([2]; cell line Renal TK10, CL9024): 1
sensitivity class Renal UO-31 CL9004 ([2]; cell line Renal UO-31, CL9004): 1
